Source: the NIST ThermoML archive (doi:10.1016/j.jct.2018.07.011)

Assay: relative permittivity at various frequencies (dimensionless)
Settings: Reentrant cavity resonator

[Ar] [argon]
Gas, Frequency=340 MHz
Settings | relative permittivity
272.94 K, 8533 kPa | 1.05077
273.04 K, 5986 kPa | 1.03462
273.17 K, 3359 kPa | 1.01869
297.44 K, 9503 kPa | 1.05146
297.45 K, 3675 kPa | 1.01893
297.45 K, 6614 kPa | 1.03509
321.92 K, 4005 kPa | 1.01899
321.93 K, 7248 kPa | 1.03523

O=C=O [carbon dioxide]
Settings | relative permittivity
234.7 K, 5002 kPa, Liquid, Frequency=270 MHz | 1.73109
234.76 K, 4012 kPa, Liquid, Frequency=270 MHz | 1.729
234.77 K, 2015 kPa, Liquid, Frequency=270 MHz | 1.72473
234.78 K, 3015 kPa, Liquid, Frequency=270 MHz | 1.72689
235.13 K, 6031 kPa, Liquid, Frequency=270 MHz | 1.73287
248.98 K, 4006 kPa, Liquid, Frequency=270 MHz | 1.68089
249.12 K, 3018 kPa, Liquid, Frequency=270 MHz | 1.67791
249.15 K, 2012 kPa, Liquid, Frequency=270 MHz | 1.67486
251.38 K, 6015 kPa, Liquid, Frequency=270 MHz | 1.68401
251.72 K, 5017 kPa, Liquid, Frequency=270 MHz | 1.6809
252.7 K, 6996 kPa, Liquid, Frequency=270 MHz | 1.685
273.6 K, 7004 kPa, Liquid, Frequency=270 MHz | 1.59893
273.75 K, 6019 kPa, Liquid, Frequency=270 MHz | 1.5936
274.12 K, 5019 kPa, Liquid, Frequency=270 MHz | 1.58749
274.66 K, 4024 kPa, Liquid, Frequency=270 MHz | 1.58054
297.38 K, 1176 kPa, Gas, Frequency=340 MHz | 1.01138
297.57 K, 7002 kPa, Liquid, Frequency=270 MHz | 1.45192
297.6 K, 5992 kPa, Gas, Frequency=340 MHz | 1.10291
297.61 K, 6991 kPa, Liquid, Frequency=270 MHz | 1.45145
297.64 K, 2005 kPa, Gas, Frequency=340 MHz | 1.02052
297.7 K, 3002 kPa, Gas, Frequency=340 MHz | 1.03319
297.73 K, 3998 kPa, Gas, Frequency=340 MHz | 1.0487
297.75 K, 4570 kPa, Gas, Frequency=340 MHz | 1.05962

F/C=C/C(F)(F)F [trans-1,3,3,3-tetrafluoropropene]
Settings | relative permittivity
248.98 K, 2078 kPa, Liquid, Frequency=200 MHz | 3.44336
249 K, 4121 kPa, Liquid, Frequency=200 MHz | 3.45458
249.02 K, 6251 kPa, Liquid, Frequency=200 MHz | 3.46583
249.06 K, 8448 kPa, Liquid, Frequency=200 MHz | 3.47696
249.07 K, 10680 kPa, Liquid, Frequency=200 MHz | 3.48805
273.01 K, 7894 kPa, Liquid, Frequency=200 MHz | 3.19554
273.19 K, 10470 kPa, Liquid, Frequency=200 MHz | 3.21071
273.23 K, 4627 kPa, Liquid, Frequency=200 MHz | 3.17426
273.36 K, 1598 kPa, Liquid, Frequency=200 MHz | 3.15254
273.46 K, 486 kPa, Liquid, Frequency=200 MHz | 3.14403
273.66 K, 73.9 kPa, Gas, Frequency=340 MHz | 1.00498
274.29 K, 139 kPa, Gas, Frequency=340 MHz | 1.00927
297.59 K, 79.6 kPa, Gas, Frequency=340 MHz | 1.00458
297.59 K, 240.4 kPa, Gas, Frequency=340 MHz | 1.01364
297.6 K, 349.7 kPa, Gas, Frequency=340 MHz | 1.02033
297.63 K, 5735 kPa, Liquid, Frequency=200 MHz | 2.92689
297.63 K, 10470 kPa, Liquid, Frequency=200 MHz | 2.96416
297.64 K, 140.5 kPa, Gas, Frequency=340 MHz | 1.00794
297.65 K, 7982 kPa, Liquid, Frequency=200 MHz | 2.94513
297.67 K, 1491 kPa, Liquid, Frequency=200 MHz | 2.88752
297.67 K, 3490 kPa, Liquid, Frequency=200 MHz | 2.90668
321.55 K, 211.2 kPa, Gas, Frequency=340 MHz | 1.01063
321.63 K, 210.1 kPa, Gas, Frequency=340 MHz | 1.0105
321.76 K, 3999 kPa, Liquid, Frequency=200 MHz | 2.66845
321.78 K, 7249 kPa, Liquid, Frequency=200 MHz | 2.70714
321.79 K, 10980 kPa, Liquid, Frequency=200 MHz | 2.74469
345.96 K, 227.2 kPa, Gas, Frequency=340 MHz | 1.01022
345.97 K, 225.2 kPa, Gas, Frequency=340 MHz | 1.01005
346.5 K, 4377 kPa, Liquid, Frequency=200 MHz | 2.42553
346.53 K, 6645 kPa, Liquid, Frequency=200 MHz | 2.46858
346.59 K, 9481 kPa, Liquid, Frequency=200 MHz | 2.51185
365.54 K, 236.9 kPa, Gas, Frequency=340 MHz | 1.00981
365.79 K, 239.2 kPa, Gas, Frequency=340 MHz | 1.00997
365.83 K, 4248 kPa, Liquid, Frequency=200 MHz | 2.19675
365.87 K, 6046 kPa, Liquid, Frequency=200 MHz | 2.25994
365.93 K, 9015 kPa, Liquid, Frequency=200 MHz | 2.33081

C=C(F)C(F)(F)F [2,3,3,3-tetrafluoro-1-propene]
Settings | relative permittivity
248.51 K, 10580 kPa, Liquid, Frequency=120 MHz | 11.2191
248.71 K, 8271 kPa, Liquid, Frequency=120 MHz | 11.1539
248.95 K, 6475 kPa, Liquid, Frequency=120 MHz | 11.0761
249.16 K, 4746 kPa, Liquid, Frequency=120 MHz | 11.0131
249.37 K, 3089 kPa, Liquid, Frequency=120 MHz | 10.9467
249.67 K, 10580 kPa, Liquid, Frequency=120 MHz | 11.1976
249.71 K, 8272 kPa, Liquid, Frequency=120 MHz | 11.1217
249.75 K, 6476 kPa, Liquid, Frequency=120 MHz | 11.0617
249.76 K, 4750 kPa, Liquid, Frequency=120 MHz | 10.9998
249.77 K, 3089 kPa, Liquid, Frequency=120 MHz | 10.9379
273.14 K, 10470 kPa, Liquid, Frequency=120 MHz | 9.47583
273.41 K, 10970 kPa, Liquid, Frequency=120 MHz | 9.48739
273.5 K, 7893 kPa, Liquid, Frequency=120 MHz | 9.37498
273.59 K, 8235 kPa, Liquid, Frequency=120 MHz | 9.38477
273.69 K, 4628 kPa, Liquid, Frequency=120 MHz | 9.24224
273.79 K, 5794 kPa, Liquid, Frequency=120 MHz | 9.28399
273.95 K, 1601 kPa, Liquid, Frequency=120 MHz | 9.10293
274.32 K, 3368 kPa, Liquid, Frequency=120 MHz | 9.17004
275.05 K, 1116 kPa, Liquid, Frequency=120 MHz | 9.04939
297.54 K, 7675 kPa, Liquid, Frequency=120 MHz | 7.93035
297.56 K, 247.8 kPa, Gas, Frequency=340 MHz | 1.03846
297.57 K, 4942 kPa, Liquid, Frequency=120 MHz | 7.79441
297.57 K, 10760 kPa, Liquid, Frequency=120 MHz | 8.06626
297.58 K, 2537 kPa, Liquid, Frequency=120 MHz | 7.65994
297.61 K, 259.6 kPa, Gas, Frequency=340 MHz | 1.04022
297.63 K, 225.5 kPa, Gas, Frequency=340 MHz | 1.03469
297.67 K, 100.9 kPa, Gas, Frequency=340 MHz | 1.01502
321.5 K, 203 kPa, Gas, Frequency=340 MHz | 1.02682
321.53 K, 644.4 kPa, Gas, Frequency=340 MHz | 1.09027
321.55 K, 817.8 kPa, Gas, Frequency=340 MHz | 1.11132
321.63 K, 4262 kPa, Liquid, Frequency=120 MHz | 6.51012
321.65 K, 7089 kPa, Liquid, Frequency=120 MHz | 6.70204
321.65 K, 10590 kPa, Liquid, Frequency=120 MHz | 6.89633
345.73 K, 218.5 kPa, Gas, Frequency=340 MHz | 1.02515
345.74 K, 874.9 kPa, Gas, Frequency=340 MHz | 1.10115
345.75 K, 693 kPa, Gas, Frequency=340 MHz | 1.08291
345.89 K, 4404 kPa, Liquid, Frequency=120 MHz | 5.30782
345.93 K, 6822 kPa, Liquid, Frequency=120 MHz | 5.57121
346.01 K, 10290 kPa, Liquid, Frequency=120 MHz | 5.83949
365.22 K, 908.6 kPa, Gas, Frequency=340 MHz | 1.09359
365.25 K, 713.8 kPa, Gas, Frequency=340 MHz | 1.07604
365.3 K, 230.9 kPa, Gas, Frequency=340 MHz | 1.0241
